Experimental data: patent publication US10221163B2 (priority 2015, dated 2019)
Where two headings read alike, the source gives them in different places.

How the values were obtained:
[1] = tested on: Pseudomonas aeruginosa efflux+ (MB9798), IMP-1; format: cell-based; parameters: Concentration of metallo-β-lactamase inhibitor which restores susceptibility of efflux + (MB9798) strain to imipenem: unit not given here; conditions: C, D serine β-lactamase inhibitor closely related to relebactam; for P. aeruginosa expressing IMP-1, efflux + (MB9798) MITC95: concentration restoring susceptibility to imipenem at 2 μg/mL in the presence of a class A
In short: (§1)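 Steps: add fixed imipenem and/or ceftazidime (usually CLSI breakpoint) and fixed AmpC-directed class A/C inhibitor to microbroth MIC wells; titrate MBL inhibitor; record concentration regaining susceptibility for each PAO1-derived strain; divide efflux+ by efflux− value.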

IMP-1 = IMP-1 (Serratia marcescens, UniProt P52699); test: biochemical; format: biochemical; conditions: fluorescence assay, CCF2-FA substrate, 2 pM enzyme, 2 hours at 25° C.; read-out: IMP-1 IC50
In short: (§2)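 Test compound, enzyme and the FRET cephalosporin substrate CCF2-FA are incubated together for 2 hours at 25° C. Cleavage is followed by fluorescence, and IC50 values are derived from semi-logarithmic inhibition curves fitted with a 4-parameter model.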

NDM-1 = NDM-1 (Klebsiella pneumoniae, UniProt C7C422); test: biochemical; format: biochemical; conditions: fluorescence assay, CCF2-FA substrate, 1 pM enzyme, 2 hours at 25° C.; read-out: NDM-1 IC50
In short: as §2

[2] = tested on: Pseudomonas aeruginosa efflux− (MB9799), IMP-1; format: cell-based; conditions: C, D serine β-lactamase inhibitor closely related to relebactam; for P. aeruginosa expressing IMP-1, efflux − (MB9799) MITC95: concentration restoring susceptibility to imipenem at 2 μg/mL in the presence of a class A
In short: as §1

[3] = tested on: Serratia marcescens expressing IMP-1 (CL5741); format: cell-based; conditions: for Serratia marcescens expressing IMP-1 (CL5741) MITC95: with imipenem 1 μg/ml, 95% inhibition of bacterial growth; for Serratia marcescens MITC95: IMP-1 strain CL5741, with imipenem 1 μg/ml, 95% inhibition of growth
In short: (§3)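 Colonies grown overnight on blood agar at 35° C were suspended in saline, diluted 1:100 into 1.1×CAMHB and dispensed. Imipenem was added to 1 μg/ml, then test compound. After 22 hours to 24 hours at 35° C, absorbance was recorded.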

[4] = tested on: Klebsiella pneumoniae expressing VIM-1 (IHMA599644); format: cell-based; conditions: for Klebsiella pneumoniae expressing VIM-1 (IHMA599644) MITC95: with imipenem 1 μg/ml, 95% inhibition of bacterial growth; for Klebsiella pneumoniae MITC95: VIM-1 strain IHMA599644, with imipenem 1 μg/ml, 95% inhibition of growth
In short: as §3

[5] = tested on: Escherichia coli expressing NDM-1 (CLB30005, CLB30016); format: cell-based; conditions: with imipenem 1 μg/ml; for Escherichia coli expressing NDM-1 (CLB30016) MITC95: 95% inhibition of bacterial growth; for Escherichia coli MITC95: NDM-1 strain, 95% inhibition of growth
In short: as §3

VIM-1 = VIM-1 (Pseudomonas aeruginosa (strain ATCC 15692 / DSM 22644 / CIP 104116 / JCM 14847 / LMG 12228 / 1C / PRS 101 / PAO1), UniProt A0A0F7KYQ8); test: biochemical; conditions: CCF2-FA substrate, 30 pM enzyme, 2 hours at 25° C.
In short: as §2

[6] = tested on: Pseudomonas aeruginosa MB9798 vs MB9799
In short: as §1

[7] = ratio MITC95 PA_9798/MITC95 PA_9799
[8] = fluorescence assay, read-out: VIM-1 IC50

Sequence of IMP-1 (P52699 whole entry, looked up, species assumed): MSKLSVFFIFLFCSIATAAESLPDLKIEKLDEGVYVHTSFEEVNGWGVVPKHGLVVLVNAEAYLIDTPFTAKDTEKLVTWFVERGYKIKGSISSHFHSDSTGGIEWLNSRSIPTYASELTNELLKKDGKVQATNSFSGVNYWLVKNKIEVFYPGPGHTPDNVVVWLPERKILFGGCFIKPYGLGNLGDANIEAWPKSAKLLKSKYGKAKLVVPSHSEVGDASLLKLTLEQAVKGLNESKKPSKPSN
Sequence of NDM-1 (C7C422 whole entry, looked up, species assumed): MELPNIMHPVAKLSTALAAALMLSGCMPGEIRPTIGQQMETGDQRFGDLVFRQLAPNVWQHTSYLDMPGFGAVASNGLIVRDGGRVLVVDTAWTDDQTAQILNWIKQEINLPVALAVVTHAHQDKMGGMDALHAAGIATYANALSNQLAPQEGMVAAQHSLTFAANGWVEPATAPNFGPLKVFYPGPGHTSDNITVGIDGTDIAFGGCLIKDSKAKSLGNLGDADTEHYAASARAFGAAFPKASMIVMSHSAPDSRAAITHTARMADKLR

| Compound | P. aeruginosa expressing IMP-1, efflux + (MB9798) MITC95 [1] | IC50 (IMP-1) | IC50 (NDM-1) | P. aeruginosa expressing IMP-1, efflux − (MB9799) MITC95 [2] | Serratia marcescens expressing IMP-1 (CL5741) MITC95 [3] | Klebsiella pneumoniae expressing VIM-1 (IHMA599644) MITC95 [4] | Escherichia coli expressing NDM-1 (CLB30016) MITC95 [5] | IC50 (VIM-1; VIM-1 IC50, fluorescence assay) | Efflux ratio [6, 7] | IC50 (VIM-1; [8]) | Serratia marcescens MITC95 [3] | Klebsiella pneumoniae MITC95 [4] | Escherichia coli MITC95 [5] | Concentration of metallo-β-lactamase inhibitor which restores susceptibility of efflux + (MB9798) strain to imipenem ([1]; efflux+ MB9798, imipenem at 2 μg/mL, in the presence of a class A) | Concentration of metallo-β-lactamase inhibitor which restores susceptibility of efflux − (MB9799) strain to imipenem ([2]; efflux− MB9799, imipenem at 2 μg/mL, in the presence of a class A) | Efflux ratio ([6]; fold difference between efflux+ (MB9798) and efflux− (MB9799) strains, imipenem at 2 μg/mL) |
| --- | --- | --- | --- | --- | --- | --- | --- | --- | --- | --- | --- | --- | --- | --- | --- | --- |
| CN1CC2(CCN(S(=O)(=O)c3ccc(-c4cccc5sc(N)nc45)c(-c4nnn[nH]4)c3S(N)(=O)=O)C2)C1 [Example 38, 3-(2-amino-1,3-benzothiazol-4-yl)-6-[(2-methyl-2,6-diazaspiro[3.4]oct-6-yl)sulfonyl]-2-(1H-tetrazol-5-yl)benzenesulfonamide] | 3.125 µM | 1.43 nM | 0.424 nM | 3.125 µM | 3.125 µM | 12.5 µM | 12.5 µM | 2.52 nM | 1.00 |  |  |  |  |  |  |  |
| NS(=O)(=O)c1c(S(=O)(=O)N2CCNCC2)ccc(-c2cccc3cn[nH]c23)c1-c1nnn[nH]1 [Example 160, 3-(1H-indazol-7-yl)-6-(piperazin-1-ylsulfonyl)-2-(1H-tetrazol-5-yl)benzenesulfonamide] | 6.25 µM | 1.39 nM | 0.599 nM | 1.563 µM | 1.563 µM | 3.125 µM | 3.125 µM |  | 4.00 | 1.07 nM |  |  |  |  |  |  |
| NCCN1CC[C@@H](NS(=O)(=O)c2ccc(-c3cccc4[nH]c(N)nc34)c(-c3nn[nH]n3)c2S(N)(=O)=O)C1 [Example 246, (R)-4-(2-amino-1H-benzo[d]imidazol-4-yl)-N1-(1-(2-aminoethyl)pyrrolidin-3-yl)-3-(2H-tetrazol-5-yl)benzene-1,2-disulfonamide] | 1.563 µM | 0.853 nM | 0.0405 nM | 0.7813 µM |  |  |  | 0.12 nM | 2.00 |  | 1.563 µM | 1.563 µM | 0.7813 µM |  |  |  |
| NC[C@H](N)CNS(=O)(=O)c1ccc(-c2cnc3cc[nH]c3c2)c(-c2nn[nH]n2)c1S(N)(=O)=O [Example 373, (S)-N1-(2,3-diaminopropyl)-4-(1H-pyrrolo[3,2-b]pyridin-6-yl)-3-(2H-tetrazol-5-yl)benzene-1,2-disulfonamide] | 1.563 µM | 0.495 nM | 0.0516 nM | 1.563 µM |  |  |  | 0.121 nM | 1.00 |  | 1.563 µM | 3.125 µM | 0.3906 µM |  |  |  |
| NCCCNS(=O)(=O)c1ccc(-c2cccc3[nH]c(N)nc23)c(-c2nn[nH]n2)c1S(N)(=O)=O [Example 182, 4-(2-amino-1H-benzo[d]imidazol-4-yl)-N1-(3-aminopropyl)-3-(2H-tetrazol-5-yl)benzene-1,2-disulfonamide] | 0.3438 µM | 0.453 nM | 0.0393 nM | 0.4271 µM | 0.5573 µM | 0.6875 µM | 0.2578 µM | 0.0904 nM | 0.80 |  |  |  |  |  |  |  |
| CN(C1CCCNC1)S(=O)(=O)c1ccc(-c2cccc3sc(N)nc23)c(-c2nnn[nH]2)c1S(N)(=O)=O (stereo not drawn) [Example 64, 4-(2-amino-1,3-benzothiazol-4-yl)-N1-methyl-N1-piperidin-3-yl-3-(1H-tetrazol-5-yl)benzene-1,2-disulfonamide] | 3.125 µM | 2.16 nM | 1.49 nM | 1.563 µM | 1.563 µM | 12.5 µM | 12.5 µM | 5.69 nM | 2.00 |  |  |  |  |  |  |  |
| Nc1nc2c(-c3ccc(S(=O)(=O)N[C@H]4CNC[C@@H]4O)c(S(N)(=O)=O)c3-c3nnn[nH]3)cccc2[nH]1 [Example 169, 4-(2-amino-1H-benzo[d]imidazol-4-yl)-N^1-((3S,4S)-4-hydroxypyrrolidin-3-yl)-3-(1H-tetrazol-5-yl)benzene-1,2-disulfonamide] | 1.563 µM | 2.08 nM | 0.137 nM | 1.563 µM | 1.563 µM | 3.125 µM | 0.7813 µM | 0.581 nM | 1.00 |  |  |  |  |  |  |  |
| NC[C@H](CO)NS(=O)(=O)c1ccc(-c2ccnc(N)c2)c(-c2nn[nH]n2)c1S(N)(=O)=O [Example 362, (R)—N1-(1-amino-3-hydroxypropan-2-yl)-4-(2-aminopyridin-4-yl)-3-(2H-tetrazol-5-yl)benzene-1,2-disulfonamide] | 3.125 µM | 9.51 nM | 3.08 nM | 1.563 µM |  |  |  | 1.88 nM | 2.00 |  | 1.563 µM | 3.125 µM | 1.563 µM |  |  |  |
| NCCNS(=O)(=O)c1ccc(-c2cccc3cn[nH]c23)c(-c2nn[nH]n2)c1S(N)(=O)=O [Example 9, N^1-(2-aminoethyl)-4-(1H-indazol-7-yl)-3-(2H-tetrazol-5-yl)benzene-1,2-disulfonamide] | 0.3906 µM | 0.171 nM | 0.0844 nM | 0.7813 µM | 1.563 µM | 1.563 µM | 0.7813 µM |  | 0.50 | 0.133 nM |  |  |  |  |  |  |
| C[C@H](CN)NS(=O)(=O)c1ccc(-c2cccc3c2nc(N)n3C)c(-c2nn[nH]n2)c1S(N)(=O)=O [Example 395] |  | 0.156 nM | 0.0315 nM |  |  |  |  | 0.108 nM |  |  | 1.563 µM | 1.563 µM | 0.3906 µM | 1.563 | 0.7813 | 2.00 |
